A word on the IC50: it is the concentration at which inhibition is half-maximal. A low value points to greater potency. As usually defined, the Ki is a dissociation constant, usually derived from enzyme kinetics or from competition with a known ligand. Low values mean higher affinity, high ones lower affinity. Broadly, the EC50 is the concentration at which the effect is half-maximal. Lower therefore signals higher potency in that assay.

The target of assay [1] is T1, Androgen receptor (Homo sapiens, UniProt P10275).
T1 sequence (P10275 whole entry): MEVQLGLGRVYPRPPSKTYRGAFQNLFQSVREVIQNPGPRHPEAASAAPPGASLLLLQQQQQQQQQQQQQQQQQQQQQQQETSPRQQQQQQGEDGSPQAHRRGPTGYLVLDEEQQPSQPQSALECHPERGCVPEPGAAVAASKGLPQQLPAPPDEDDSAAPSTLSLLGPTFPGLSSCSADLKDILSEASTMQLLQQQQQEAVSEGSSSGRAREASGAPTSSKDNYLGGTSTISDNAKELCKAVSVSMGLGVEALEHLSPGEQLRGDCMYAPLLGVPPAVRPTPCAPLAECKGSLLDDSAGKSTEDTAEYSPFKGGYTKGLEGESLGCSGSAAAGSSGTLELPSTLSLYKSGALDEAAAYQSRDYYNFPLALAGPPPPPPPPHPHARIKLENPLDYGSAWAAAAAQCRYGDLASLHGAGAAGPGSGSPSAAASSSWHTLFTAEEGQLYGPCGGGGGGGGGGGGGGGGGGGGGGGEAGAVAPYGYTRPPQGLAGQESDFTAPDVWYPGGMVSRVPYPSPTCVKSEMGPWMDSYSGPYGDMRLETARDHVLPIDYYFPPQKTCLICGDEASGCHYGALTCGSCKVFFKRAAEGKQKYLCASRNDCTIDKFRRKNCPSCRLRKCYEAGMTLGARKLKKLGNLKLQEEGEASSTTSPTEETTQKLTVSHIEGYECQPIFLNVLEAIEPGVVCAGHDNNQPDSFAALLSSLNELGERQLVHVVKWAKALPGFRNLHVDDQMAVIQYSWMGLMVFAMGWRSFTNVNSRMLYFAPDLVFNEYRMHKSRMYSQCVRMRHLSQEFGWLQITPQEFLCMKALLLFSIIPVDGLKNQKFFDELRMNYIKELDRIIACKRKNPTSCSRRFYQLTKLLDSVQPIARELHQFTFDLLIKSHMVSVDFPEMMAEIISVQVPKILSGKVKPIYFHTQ
Description: Antagonist activity at human androgen receptor expressed in CV1 cells

In assay [2] the target is T1, Androgen receptor. Nature of the assay: biochemical.
Description: Binding affinity to human androgen receptor expressed in CV1 cells
For assay [3], the target named is T1, Androgen receptor. This is another data set of the same source.
Description: Agonist activity at human androgen receptor expressed in CV1 cells

`CC1(C)C=Cc2cc3c(C(F)(F)F)cc(O)nc3cc2N1` registered an IC50 in assay [1] of 27 nM. Besides, the Ki in assay [2] turned out to be 73 nM.
For `CCC1CCc2cc3c(C(F)(F)F)cc(=O)[nH]c3cc2N1` (stereo unspecified), the IC50 in assay [1] was found to be 14 nM. In assay [2], this compound gave a Ki of 11 nM.
As for `O=c1cc(C(F)(F)F)c2ccc(NC3CCCC3)cc2[nH]1`, in assay [1], the IC50 came out at 149 nM. In assay [2], the Ki stood at 1000 nM.
Regarding `O=c1cc(C(F)(F)F)c2ccc(NC3CCCCC3)cc2[nH]1`, the IC50 in assay [1] was 507 nM. In assay [2], the Ki is 1000 nM.
With `O=c1cc(C(F)(F)F)c2ccc(NCc3ccccc3)cc2[nH]1`, the IC50 in assay [1] turned out to be 294 nM. The inhibitory constant (Ki) in assay [2] worked out at 163 nM.
In assay [1], `O=c1cc(C(F)(F)F)c2ccc(NCC(F)(F)F)cc2o1` came in with an IC50 of 50 nM.
`O=c1cc(C(F)(F)F)c2ccc(N(CC(F)(F)F)CC(F)(F)F)cc2o1` registered an EC50 in assay [3] of 73 nM. The same compound had an IC50 in assay [1] of 63 nM.
`CCNc1ccc2[nH]c(=O)cc(C(F)(F)F)c2c1` yielded an IC50 in assay [1] of 111 nM.
`O=c1cc(C(F)(F)F)c2cc(NC3CCCC3)ccc2[nH]1`: the IC50 in assay [1] worked out at 42 nM. The compound further showed an inhibition constant Ki in assay [2] of 74 nM.
